Where a SMILES comes first, the peptide text is derived from it. The star is where a group is joined. Octanoyl = CCCCCCCC(=O)*
Legend:
Angiotensin II receptor = target: T1, Angiotensin II receptor (Rattus norvegicus, UniProt P29089+P25095+P35351); experiment: Antagonist activity at angiotensin 2 receptor in rat uterus assessed as inhibition of angiotensin-2-induced effect after 15 mins; assay type: tissue-based
T1 sequence (P29089 whole entry): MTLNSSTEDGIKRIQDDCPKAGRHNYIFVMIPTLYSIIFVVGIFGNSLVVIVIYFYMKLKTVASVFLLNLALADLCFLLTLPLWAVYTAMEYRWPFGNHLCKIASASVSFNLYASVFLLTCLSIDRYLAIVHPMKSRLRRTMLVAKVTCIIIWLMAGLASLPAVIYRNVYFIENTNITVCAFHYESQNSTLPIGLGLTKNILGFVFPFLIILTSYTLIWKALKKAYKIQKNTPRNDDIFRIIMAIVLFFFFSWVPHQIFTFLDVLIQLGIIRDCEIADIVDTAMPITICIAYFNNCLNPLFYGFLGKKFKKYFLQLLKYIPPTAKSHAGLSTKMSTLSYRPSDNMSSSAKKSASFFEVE
T1 sequence (P25095 whole entry): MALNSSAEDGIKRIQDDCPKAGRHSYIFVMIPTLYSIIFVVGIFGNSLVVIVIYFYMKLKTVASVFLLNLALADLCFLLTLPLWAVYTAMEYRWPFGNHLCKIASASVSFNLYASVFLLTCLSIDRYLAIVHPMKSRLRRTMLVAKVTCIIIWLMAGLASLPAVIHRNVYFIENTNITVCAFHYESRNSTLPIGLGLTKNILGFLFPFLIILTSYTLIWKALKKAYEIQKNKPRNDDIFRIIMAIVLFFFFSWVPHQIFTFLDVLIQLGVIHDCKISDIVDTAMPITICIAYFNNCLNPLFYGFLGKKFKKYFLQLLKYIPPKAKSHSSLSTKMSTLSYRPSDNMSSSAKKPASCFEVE
T1 sequence (P35351 whole entry): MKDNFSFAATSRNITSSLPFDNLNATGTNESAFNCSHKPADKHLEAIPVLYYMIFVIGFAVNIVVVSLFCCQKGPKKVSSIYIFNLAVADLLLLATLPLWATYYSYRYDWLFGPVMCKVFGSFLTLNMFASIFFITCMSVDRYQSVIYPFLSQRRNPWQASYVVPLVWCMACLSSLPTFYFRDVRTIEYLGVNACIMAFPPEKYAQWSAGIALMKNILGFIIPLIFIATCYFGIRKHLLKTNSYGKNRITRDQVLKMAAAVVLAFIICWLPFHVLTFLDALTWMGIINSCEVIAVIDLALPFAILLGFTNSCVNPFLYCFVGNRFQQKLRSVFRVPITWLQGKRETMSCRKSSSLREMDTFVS

[1] = Antagonist activity at angiotensin 2 receptor in guinea pig ileum assessed as inhibition of angiotensin-2-induced effect after 15 mins; assay type: tissue-based; settings: Cavia porcellus, 0.25 h, read-out: pA2 (converted)
Cavia porcellus [2] = organism: Cavia porcellus; experiment: Agonist activity at angiotensin 2 receptor in guinea pig ileum relative to angiotensin-2; assay type: tissue-based
[3] = target: T2, Angiotensin II receptor (Rattus norvegicus) (UniProt P29089+P25095+P35351); experiment: Antagonist activity at angiotensin 2 receptor in rat uterus assessed as concentration required to reduce maximum response induced by agonist by one-half after 15 mins; assay type: tissue-based
[4] = target: T2, Angiotensin II receptor (Rattus norvegicus); experiment: Agonist activity at angiotensin 2 receptor in rat uterus relative to angiotensin-2; assay type: tissue-based
[5] = Partition coefficient, log K of the compound in n-BuOH-HOAc-H2O; assay type: physicochemical
Rattus norvegicus [6] = experiment: Antihypertensive activity in iv dosed rat assessed as dose required to inhibit angiotensin-2-induced increase in blood pressure; assay type: functional
Rattus norvegicus [7] = experiment: Increase in blood pressure in iv dosed rat relative to angiotensin-2; assay type: functional
Rattus norvegicus [8] = experiment: Antihypertensive activity in iv dosed rat assessed as time required for recovery of angiotensin-2-induced increase in blood pressure; assay type: functional, organism-based
Cavia porcellus [9] = experiment: Antagonist activity at angiotensin 2 receptor in guinea pig ileum assessed as time required for recovery of organ's response at 2 X 10^-7 M administered 3 mins prior to angiotensin-2 challenge followed by compound washout at 2 mins post challenge; assay type: tissue-based
Cavia porcellus [10] = organism: Cavia porcellus; experiment: Antagonist activity at angiotensin 2 receptor in guinea pig ileum assessed as concentration required to reduction of angiotensin-2-induced maximum response by one-half after 15 mins; assay type: tissue-based
[11] = target: T2, Angiotensin II receptor (Rattus norvegicus); experiment: Antagonist activity at angiotensin 2 receptor in rat uterus assessed as time required for recovery of organ's response at 2 X 10^-7 M administered 3 mins prior to angiotensin-2 challenge followed by compound washout at 2 mins post challenge; assay type: tissue-based
Cavia porcellus [12] = experiment: Antagonist activity at angiotensin 2 receptor in guinea pig ileum assessed as time required for recovery of organ's response at 2 X 10^-8 M administered 3 mins prior to angiotensin-2 challenge followed by compound washout at 2 mins post challenge; assay type: tissue-based
[13] = target: T2, Angiotensin II receptor (Rattus norvegicus); experiment: Antagonist activity at angiotensin 2 receptor in rat uterus assessed as time required for recovery of organ's response at 2 X 10^-8 M administered 3 mins prior to angiotensin-2 challenge followed by compound washout at 5 mins post challenge; assay type: tissue-based

| pA2 (Angiotensin II receptor) | pAh [3] | Activity [4] [%] | K [5] | T1/2 [11] [min] | T1/2 [13] [min] | Molecule | Kb [1] [nM] | Activity (Cavia porcellus [2]) [%] | Activity (Rattus norvegicus [6]) [ug/min.kg] | Activity (Rattus norvegicus [7]) [%] | T1/2 (Rattus norvegicus [8]) [min] | T1/2 (Cavia porcellus [9]) [min] | pAh (Cavia porcellus [10]) | T1/2 (Cavia porcellus [12]) [min] |
| --- | --- | --- | --- | --- | --- | --- | --- | --- | --- | --- | --- | --- | --- | --- |
| 8.42 | 6 | 0.21 | 7 | 6.6 |  | CCCCCCCC(=O)N[C@@H](CC(=O)O)C(=O)N[C@@H](CCCNC(=N)N)C(=O)N[C@H](C(=O)N[C@@H](Cc1ccc(O)cc1)C(=O)N[C@H](C(=O)N[C@@H](Cc1cnc[nH]1)C(=O)N1CCC[C@H]1C(=O)N[C@@H](CC(C)C)C(=O)O)[C@@H](C)CC)C(C)C (Octanoyl-DRVYIHPL-OH) | 22.9 | 0.15 | 2.3 | 0.1 | 12 | 1.7 | 6.2 |  |
| 8.33 | 6.2 | 0.025 | 0.18 |  | 28.1 | H-DRVYIHPL-OH | 1.2 | 0.016 | 10.2 | 0.09 | 12 |  | 7.3 | 3.8 |
